Results as given in ChEMBL document CHEMBL5725581, “Compounds and compositions for treating HIV with derivatives of Betulin” (2018).

Assay: MT4 Cell Antiviral Assay: Antiviral HIV activity and compound-induced cytotoxicity were measured in parallel by means of a propidium iodide based procedure in the human T-cell lymphotropic virus transformed cell line MT4. Aliquots of the test compounds were serially diluted in medium (RPMI 1640, 10% fetal calf serum (FCS), and gentamycin) in 96-well plates (Costar 3598) using a Cetus Pro/Pette. …
Description: MT4 Cell Antiviral Assay: Antiviral HIV activity and compound-induced cytotoxicity were measured in parallel by means of a propidium iodide based procedure in the human T-cell lymphotropic virus transformed cell line MT4. […] Exponentially growing MT4 cells were harvested and centrifuged at 1000 rpm for 10 min in a Jouan centrifuge (model CR 4 12). […] Cell infection was allowed to proceed for 1 hr at 37° C. in a tissue culture incubator with humidified 5% CO2 atmosphere. After the 1 hr incubation the virus/cell suspensions were diluted 6-fold with fresh medium, and 125 μl of the cell suspension was added to each well of the plate containing pre-diluted compound. Plates were then placed in a tissue culture incubator with humidified 5% CO2 for 5 days. […] After thorough mixing with a Costar multitip pipetter, 60 μl of the mixture was transferred to filter-bottomed 96-well plates. The plates were analyzed in an automated assay instrument (Screen Machine, Idexx Laboratories). The control and standard used was 3′-azido-3′-deoxythymidine tested over a concentration range of 0.01 to 1 μM in every assay. […] The assay makes use of a propidium iodide dye to estimate the DNA content of each well.For MTS readout, 20 μl CellTiter 96 AQ One Solution reagent (Promega #G3582) was added to each well.

Row | SMILES | EC50 | EC50 (MT4, 10 min)
1 | CC(C)C1=C2[C@H]3CC[C@@H]4[C@@]5(C)CC[C@H](OC(=O)CC(C)(C)CC(=O)O)C(C)(C)[C@@H]5CC[C@@]4(C)[C@]3(C)CC[C@@]2([C@H](O)CNCc2ccc(Cl)cc2)CC1=O | 104 nM | 
2 | CC(C)NC[C@H](O)[C@@]12CC[C@]3(C)[C@H](CC[C@@H]4[C@@]5(C)CC[C@H](OC(=O)CC(C)(C)C(=O)O)C(C)(C)[C@@H]5CC[C@]43C)C1=C(C(C)C)C(=O)C2 |  | 31.5 nM
